Experimental data as given in patent publication US11959086B2, “Dual transit peptides for targeting polypeptides” (BASF AGRO B.V., priority 2016, dated 2024).

Columns and labels:
[1] = system: Arabidopsis plants, construct hemG_tpFNR (SEQ ID NO 117); test: Tolerance of transgenic T1 Arabidopsis plants to herbicides, greenhouse (Tolerance Factor); assay type: in vivo, Arabidopsis thaliana
[2] = system: transgenic Arabidopsis thaliana, transgene SEQ ID NO 117; test: Herbicide injury evaluation of Arabidopsis plants, greenhouse; assay type: in vivo; settings: Table 3, scale 0-100
[3] = system: Arabidopsis plants, construct hemG_tplAMATU_PPO2 (SEQ ID NO 118); test: Tolerance of transgenic T1 Arabidopsis plants to herbicides, greenhouse (Tolerance Factor); assay type: in vivo, Arabidopsis thaliana
[4] = system: Arabidopsis plants, construct RHOMA_PPO_F420V_tpFNR (SEQ ID NO 124); test: as above; assay type: in vivo, Arabidopsis thaliana
[5] = system: Wildtype/non-transgenic Arabidopsis thaliana; test: Herbicide injury evaluation of Arabidopsis plants, greenhouse; assay type: in vivo; settings: scale 0-100
[6] = system: Arabidopsis plants, construct OPITE_PPO_wt_tpFNR (SEQ ID NO 121); test: Tolerance of transgenic T1 Arabidopsis plants to herbicides, greenhouse (Tolerance Factor); assay type: in vivo, Arabidopsis thaliana
[7] = system: Arabidopsis plants, construct RHOMA_PPO_wt_tpAMATU_PPO2 (SEQ ID NO 127); test: as above; assay type: in vivo, Arabidopsis thaliana
[8] = system: Arabidopsis plants, construct hemF_tpsAMATU_PPO2 (SEQ ID NO 116); test: as above; assay type: in vivo, Arabidopsis thaliana
[9] = system: transgenic Arabidopsis thaliana, transgene SEQ ID NO 128; test: Herbicide injury evaluation of Arabidopsis plants, greenhouse; assay type: in vivo; settings: Table 3, scale 0-100
[10] = system: transgenic Arabidopsis thaliana, transgene SEQ ID NO 120; test: as above; assay type: in vivo; settings: Table 4, scale 0-100
[11] = system: Arabidopsis plants, construct RHOMA_PPO_wt_tpFNR (SEQ ID NO 123); test: Tolerance of transgenic T1 Arabidopsis plants to herbicides, greenhouse (Tolerance Factor); assay type: in vivo, Arabidopsis thaliana
[12] = system: Arabidopsis plants, construct hemF_tplAMATU_PPO2 (SEQ ID NO 115); test: as above; assay type: in vivo, Arabidopsis thaliana
[13] = system: Arabidopsis plants, construct CHLSP_PPO_wt_tpFNR (SEQ ID NO 128); test: as above; assay type: in vivo, Arabidopsis thaliana
[14] = system: transgenic Arabidopsis thaliana, transgene SEQ ID NO 121; test: Herbicide injury evaluation of Arabidopsis plants, greenhouse; assay type: in vivo; settings: Table 3, scale 0-100
[15] = system: Arabidopsis plants, construct hemG_tpsAMATU_PPO2 (SEQ ID NO 119); test: Tolerance of transgenic T1 Arabidopsis plants to herbicides, greenhouse (Tolerance Factor); assay type: in vivo, Arabidopsis thaliana
[16] = system: empty vector-transformed leaf discs; test: PSII yield inhibition in tobacco leaf discs (chlorophyll fluorescence, imaging PAM); assay type: cell-based; settings: Nicotiana benthamiana, 48 h, read-out: IC50 of PSII yield inhibition
[17] = system: Arabidopsis plants, construct hemF_tpFNR (SEQ ID NO 114); test: Tolerance of transgenic T1 Arabidopsis plants to herbicides, greenhouse (Tolerance Factor); assay type: in vivo, Arabidopsis thaliana
[18] = system: transgenic Arabidopsis thaliana, transgene SEQ ID NO 118; test: Herbicide injury evaluation of Arabidopsis plants, greenhouse; assay type: in vivo; settings: scale 0-100
[19] = system: transgenic Arabidopsis thaliana, transgene SEQ ID NO 119; test: as above; assay type: in vivo; settings: Table 3, scale 0-100

## CC(C)N(C)S(=O)(=O)NC(=O)c1cc(-n2c(=O)cc(C(F)(F)F)n(C)c2=O)c(F)cc1Cl [Saflufenacil, saflufenacil]
[1]
  Tolerance Factor: 332
[2]; SEQ ID NO 117 C, 50 g ai/ha + 1% MSO
  Herbicide injury evaluation 14 days after herbicide treatment: 100
[2]; SEQ ID NO 117 C, 150 g ai/ha + 1% MSO
  Herbicide injury evaluation 14 days after herbicide treatment: 98
[2]; SEQ ID NO 117 C, 300 g ai/ha + 1% MSO
  Herbicide injury evaluation 14 days after herbicide treatment: 97
[2]; SEQ ID NO 117 I, 50 g ai/ha + 1% MSO
  Herbicide injury evaluation 14 days after herbicide treatment: 94
[2]; SEQ ID NO 117 I, 150 g ai/ha + 1% MSO
  Herbicide injury evaluation 14 days after herbicide treatment: 99
[2]; SEQ ID NO 117 I, 300 g ai/ha + 1% MSO
  Herbicide injury evaluation 14 days after herbicide treatment: 95
[3]
  Tolerance Factor: 2200
[4]
  Tolerance Factor: 1
[5]; Table 3, 50 g ai/ha + 1% MSO
  Herbicide injury evaluation 14 days after herbicide treatment: 100
[5]; Table 3, 150 g ai/ha + 1% MSO
  Herbicide injury evaluation 14 days after herbicide treatment: 100
[5]; Table 3, 300 g ai/ha + 1% MSO
  Herbicide injury evaluation 14 days after herbicide treatment: 100
[5]; Table 4, 50 g ai/ha + 1% MSO
  Herbicide injury evaluation 14 days after herbicide treatment: 100
[5]; Table 4, 150 g ai/ha + 1% MSO
  Herbicide injury evaluation 14 days after herbicide treatment: 100
[5]; Table 4, 300 g ai/ha + 1% MSO
  Herbicide injury evaluation 14 days after herbicide treatment: 100
[6]
  Tolerance Factor: 14
[7]
  Tolerance Factor: 1
[8]
  Tolerance Factor: 1
[9]; SEQ ID NO 128 D, 50 g ai/ha + 1% MSO
  Herbicide injury evaluation 14 days after herbicide treatment: 93
[9]; SEQ ID NO 128 D, 150 g ai/ha + 1% MSO
  Herbicide injury evaluation 14 days after herbicide treatment: 97
[9]; SEQ ID NO 128 D, 300 g ai/ha + 1% MSO
  Herbicide injury evaluation 14 days after herbicide treatment: 97
[9]; SEQ ID NO 128 E, 50 g ai/ha + 1% MSO
  Herbicide injury evaluation 14 days after herbicide treatment: 97
[9]; SEQ ID NO 128 E, 150 g ai/ha + 1% MSO
  Herbicide injury evaluation 14 days after herbicide treatment: 97
[9]; SEQ ID NO 128 E, 300 g ai/ha + 1% MSO
  Herbicide injury evaluation 14 days after herbicide treatment: 97
[10]; SEQ ID NO 120 J, 50 g ai/ha + 1% MSO
  Herbicide injury evaluation 14 days after herbicide treatment: 80
[10]; SEQ ID NO 120 J, 150 g ai/ha + 1% MSO
  Herbicide injury evaluation 14 days after herbicide treatment: 83
[10]; SEQ ID NO 120 J, 300 g ai/ha + 1% MSO
  Herbicide injury evaluation 14 days after herbicide treatment: 85
[10]; SEQ ID NO 120 M, 50 g ai/ha + 1% MSO
  Herbicide injury evaluation 14 days after herbicide treatment: 95
[10]; SEQ ID NO 120 M, 150 g ai/ha + 1% MSO
  Herbicide injury evaluation 14 days after herbicide treatment: 93
[10]; SEQ ID NO 120 M, 300 g ai/ha + 1% MSO
  Herbicide injury evaluation 14 days after herbicide treatment: 88
[11]
  Tolerance Factor: 1
[12]
  Tolerance Factor: 1
[13]
  Tolerance Factor: 640
[14]; SEQ ID NO 121 G, 50 g ai/ha + 1% MSO
  Herbicide injury evaluation 14 days after herbicide treatment: 100
[14]; SEQ ID NO 121 G, 150 g ai/ha + 1% MSO
  Herbicide injury evaluation 14 days after herbicide treatment: 100
[14]; SEQ ID NO 121 G, 300 g ai/ha + 1% MSO
  Herbicide injury evaluation 14 days after herbicide treatment: 100
[14]; SEQ ID NO 121 H, 50 g ai/ha + 1% MSO
  Herbicide injury evaluation 14 days after herbicide treatment: 100
[14]; SEQ ID NO 121 H, 150 g ai/ha + 1% MSO
  Herbicide injury evaluation 14 days after herbicide treatment: 100
[14]; SEQ ID NO 121 H, 300 g ai/ha + 1% MSO
  Herbicide injury evaluation 14 days after herbicide treatment: 100
[15]
  Tolerance Factor: 1
[16]
  IC50: 0.11 µM
[17]
  Tolerance Factor: 1
[18]; Table 3, SEQ ID NO 118 Q, 50 g ai/ha + 1% MSO
  Herbicide injury evaluation 14 days after herbicide treatment: 55
[18]; Table 3, SEQ ID NO 118 Q, 150 g ai/ha + 1% MSO
  Herbicide injury evaluation 14 days after herbicide treatment: 58
[18]; Table 3, SEQ ID NO 118 Q, 300 g ai/ha + 1% MSO
  Herbicide injury evaluation 14 days after herbicide treatment: 68
[18]; Table 3, SEQ ID NO 118 R, 50 g ai/ha + 1% MSO
  Herbicide injury evaluation 14 days after herbicide treatment: 5
[18]; Table 3, SEQ ID NO 118 R, 150 g ai/ha + 1% MSO
  Herbicide injury evaluation 14 days after herbicide treatment: 65
[18]; Table 3, SEQ ID NO 118 R, 300 g ai/ha + 1% MSO
  Herbicide injury evaluation 14 days after herbicide treatment: 48
[18]; Table 4, SEQ ID NO 118 Q, 50 g ai/ha + 1% MSO
  Herbicide injury evaluation 14 days after herbicide treatment: 63
[18]; Table 4, SEQ ID NO 118 Q, 150 g ai/ha + 1% MSO
  Herbicide injury evaluation 14 days after herbicide treatment: 63
[18]; Table 4, SEQ ID NO 118 Q, 300 g ai/ha + 1% MSO
  Herbicide injury evaluation 14 days after herbicide treatment: 65
[18]; Table 4, SEQ ID NO 118 R, 50 g ai/ha + 1% MSO
  Herbicide injury evaluation 14 days after herbicide treatment: 38
[18]; Table 4, SEQ ID NO 118 R, 150 g ai/ha + 1% MSO
  Herbicide injury evaluation 14 days after herbicide treatment: 45
[18]; Table 4, SEQ ID NO 118 R, 300 g ai/ha + 1% MSO
  Herbicide injury evaluation 14 days after herbicide treatment: 60
[19]; SEQ ID NO 119 A, 50 g ai/ha + 1% MSO
  Herbicide injury evaluation 14 days after herbicide treatment: 100
[19]; SEQ ID NO 119 A, 150 g ai/ha + 1% MSO
  Herbicide injury evaluation 14 days after herbicide treatment: 100
[19]; SEQ ID NO 119 A, 300 g ai/ha + 1% MSO
  Herbicide injury evaluation 14 days after herbicide treatment: 100
[19]; SEQ ID NO 119 B, 50 g ai/ha + 1% MSO
  Herbicide injury evaluation 14 days after herbicide treatment: 100
[19]; SEQ ID NO 119 B, 150 g ai/ha + 1% MSO
  Herbicide injury evaluation 14 days after herbicide treatment: 100
[19]; SEQ ID NO 119 B, 300 g ai/ha + 1% MSO
  Herbicide injury evaluation 14 days after herbicide treatment: 100
